The values below come from patent US8772480B2, “Inhibitors of PI3 kinase and/or mTOR” (priority 2009, dated 2014).

In one assay the target is PI3Kα (Homo sapiens (Human), UniProt P42336). As to conditions: read-out: PI3Kα AlphaScreen ® Ki. On the technique in general: In Alpha technology, singlet oxygen from a donor bead excites a nearby acceptor bead.
Assay [1] relates to phosphorylation of Akt at Serine 473 in U87 MG cells. As to the kind of experiment: cells. The following applies: Homo sapiens, U-87 MG, 2 h.
Procedure: pAkt Aplhascreen (U87 Cell)
This assay was performed using U87 MG cells. […] The cells were maintained weekly using 0.05% Trypsin (Gibco) and replated in 150 mm TC—Treated Culture Dishes (Corning, Corning, N.Y.).
The first day of the assay, the adherent cells were trypsinized, media was added to the loose cells and cells were mixed to a homogenous mixture. 0.5 ml of the homogenous mixture was counted on the Beckman Coulter® Vi-CELL™ XR (Fullerton, Calif.). 50 frames of cells were counted and the number of viable cells was determined. The cells were then diluted to 0.25 million cells per ml, and centrifuged at 200 rcf for 5 minutes. The media was removed and the cells were reconstituted in fresh media for plating. The cells were plated at 20 μl per well on the PerkinElmer® FlexDrop PLUS in Low Volume 384 Well White Tissue Culture Plates (Corning) with a final cell density of 5K cells per well. The plates were incubated overnight at 37° Celsius, 5% CO2.
After two hours, the media in the cell plates was aspirated using the BioTek® ELx405HT plate washer (Winooski, Vt.) removing the majority of media and compound without disturbing the adherent U87 cells. […] The plates were then incubated at room temperature on a shaker for ten minutes. […] The AlphaScreen® reaction was added to the cell lysate at 6 μl per well using the PerkinElmer® FlexDrop PLUS. The plates were placed in a humid environment to reduce edge effects and incubated overnight at room temperature with restricted air flow in the dark.
Setting [2] is: read-out: U87Cell IC50, pAkt (Ser 473), U87 MG cells, two hours with compound.

Read-outs that look alike come from different tables or passages of the source.

Chain of PI3Kα (P42336 whole entry): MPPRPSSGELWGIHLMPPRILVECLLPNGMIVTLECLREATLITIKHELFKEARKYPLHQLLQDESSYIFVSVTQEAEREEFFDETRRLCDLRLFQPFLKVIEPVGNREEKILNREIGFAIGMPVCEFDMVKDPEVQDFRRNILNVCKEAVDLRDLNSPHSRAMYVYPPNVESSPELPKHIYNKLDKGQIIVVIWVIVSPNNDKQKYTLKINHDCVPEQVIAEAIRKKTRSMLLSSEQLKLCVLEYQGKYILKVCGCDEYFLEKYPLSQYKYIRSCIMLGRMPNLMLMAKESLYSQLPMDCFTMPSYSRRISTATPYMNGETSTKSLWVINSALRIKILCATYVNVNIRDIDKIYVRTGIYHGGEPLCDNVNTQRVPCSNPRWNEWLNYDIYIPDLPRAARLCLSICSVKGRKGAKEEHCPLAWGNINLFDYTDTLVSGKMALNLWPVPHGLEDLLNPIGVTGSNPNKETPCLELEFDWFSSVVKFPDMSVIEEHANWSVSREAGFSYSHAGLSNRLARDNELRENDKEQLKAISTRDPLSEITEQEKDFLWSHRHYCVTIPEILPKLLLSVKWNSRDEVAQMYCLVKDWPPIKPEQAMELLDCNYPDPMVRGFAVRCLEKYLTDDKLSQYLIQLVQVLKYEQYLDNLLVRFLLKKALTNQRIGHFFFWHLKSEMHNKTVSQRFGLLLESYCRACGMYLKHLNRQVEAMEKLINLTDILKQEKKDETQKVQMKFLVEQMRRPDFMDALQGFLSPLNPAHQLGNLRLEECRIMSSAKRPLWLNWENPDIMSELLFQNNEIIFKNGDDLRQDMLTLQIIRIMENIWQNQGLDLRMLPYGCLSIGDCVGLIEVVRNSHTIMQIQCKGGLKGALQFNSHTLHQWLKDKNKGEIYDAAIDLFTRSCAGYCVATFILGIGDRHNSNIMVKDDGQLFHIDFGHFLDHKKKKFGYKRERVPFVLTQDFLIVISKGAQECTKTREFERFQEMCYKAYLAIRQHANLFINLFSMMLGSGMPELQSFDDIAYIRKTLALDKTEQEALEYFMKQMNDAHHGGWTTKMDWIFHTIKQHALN
Chain of PI3Kα (P27986 whole entry partner): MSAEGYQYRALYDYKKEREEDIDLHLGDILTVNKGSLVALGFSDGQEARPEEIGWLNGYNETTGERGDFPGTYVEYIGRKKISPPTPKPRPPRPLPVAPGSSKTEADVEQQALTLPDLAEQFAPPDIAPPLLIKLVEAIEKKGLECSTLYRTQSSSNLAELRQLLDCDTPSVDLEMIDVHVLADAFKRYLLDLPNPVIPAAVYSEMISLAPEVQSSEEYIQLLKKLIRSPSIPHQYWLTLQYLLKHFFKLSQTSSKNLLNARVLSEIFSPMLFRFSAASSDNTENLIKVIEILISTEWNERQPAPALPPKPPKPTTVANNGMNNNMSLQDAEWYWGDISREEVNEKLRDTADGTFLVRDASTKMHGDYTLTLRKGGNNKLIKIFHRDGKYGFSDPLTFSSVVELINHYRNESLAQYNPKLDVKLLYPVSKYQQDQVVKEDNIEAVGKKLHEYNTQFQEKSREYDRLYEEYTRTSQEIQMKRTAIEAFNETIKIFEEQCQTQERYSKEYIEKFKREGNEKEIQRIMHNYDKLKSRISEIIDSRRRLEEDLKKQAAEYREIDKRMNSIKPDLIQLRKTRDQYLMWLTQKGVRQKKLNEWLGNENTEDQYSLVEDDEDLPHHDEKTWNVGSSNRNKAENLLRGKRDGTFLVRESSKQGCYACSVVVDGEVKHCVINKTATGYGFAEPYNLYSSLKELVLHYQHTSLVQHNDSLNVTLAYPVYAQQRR

By Ki is commonly meant the equilibrium dissociation constant of an inhibitor or competing ligand from its target. For orientation: IC50 means the concentration needed to halve the response being measured. On to `COc1ccc(Nc2ncc(CN3CCn4ncnc4C3)cc2-c2nc(C)nc(N)n2)cn1` [Example 233, 4-(5-((5,6-Dihydro-[1,2,4]Triazolo[1,5-A]Pyrazin-7(8H)-yl)Methyl)-2-(6-Methoxypyridin-3-Ylamino)Pyridin-3-yl)-6-Methyl-1,3,5-Triazin-2-Amine], for which the Ki on PI3Kα came to 41 nM. In addition, in assay [1] (setting [2]), the IC50 came out at 58 nM.

As for `COCCNc1nc(C)nc(-c2cc(Cl)cnc2Nc2cnc(OC)c(F)c2)n1` [Example 189, 4-(5-Chloro-2-(5-Fluoro-6-Methoxypyridin-3-Ylamino)Pyridin-3-yl)-N-(2-Methoxyethyl)-6-Methyl-1,3,5-Triazin-2-Amine], at PI3Kα, the Ki came out at 409 nM. In addition, in assay [1] (setting [2]), the IC50 was over 10000 nM.

As to `COc1cc(Nc2ncc(C(C)(C)O)cc2-c2nc(C)nc(N)n2)cnc1OC` [Example 350, 2-(5-(4-Amino-6-Methyl-1,3,5-Triazin-2-yl)-6-(5,6-Dimethoxypyridin-3-Ylamino)Pyridin-3-yl)Propan-2-ol], at PI3Kα, the Ki worked out at 19 nM. Further, in assay [1] (setting [2]), the IC50 is 7 nM.

As for `Cc1nc(-c2cc(C(C)N3CCOCC3)cnc2Nc2cnc(Cl)c(NS(=O)(=O)N(C)C)c2)c2nc[nH]c2n1` (stereo not drawn) [Example 340, N′-(2-Chloro-5-((3-(2-Methyl-9H-Purin-6-yl)-5-(1-(4-Morpholinyl)Ethyl)-2-Pyridinyl)Amino)-3-Pyridinyl)-N,N-Dimethylsulfamide], on PI3Kα, the Ki is 4 nM. The concentration for half-maximal inhibition (IC50) in assay [1] (setting [2]) amounted to 14 nM.

On to `Cc1nc(N)nc(-c2cc([C@@H](C)N3CCN(S(C)(=O)=O)CC3)cnc2Nc2ccc3cccnc3c2)n1` [Example 310, (R)—N-(3-(4-amino-6-methyl-1,3,5-triazin-2-yl)-5-(1-(4-(methylsulfonyl)piperazin-1-yl)ethyl)pyridin-2-yl)quinolin-7-amine 2,2,2-trifluoroacetate], for which, on PI3Kα, the Ki is 36 nM. Also, in assay [1] (read-out: U87Cell IC50), the IC50 turned out to be 65 nM.

With `Cc1nc(N)nc(-c2cc(CN3CCN(S(C)(=O)=O)CC3)cnc2Nc2cc[nH]n2)n1` [Example 244, 4-(2-(1H-Pyrazol-3-Ylamino)-5-((4-(Methylsulfonyl)Piperazin-1-yl)Methyl)Pyridin-3-yl)-6-Methyl-1,3,5-Triazin-2-Amine], the Ki at PI3Kα came to 1460 nM. In assay [1] (setting [2]), the IC50 was 1490 nM.

As for `COc1ccc(Nc2ncc(C(N3CCN(S(C)(=O)=O)CC3)C(F)(F)F)cc2-c2nc(C)nc(N)n2)cn1` (stereo not drawn) [Example 321, 4-(2-(6-Methoxypyridin-3-Ylamino)-5-(2,2,2-Trifluoro-1-(4-(Methylsulfonyl)Piperazin-1-yl)Ethyl)Pyridin-3-yl)-6-Methyl-1,3,5-Triazin-2-Amine], the Ki at PI3Kα was 34 nM. Also, the IC50 in assay [1] (setting [2]) came to 80 nM.

Regarding `COc1ccc(Nc2nc(N(C)C)ncc2-c2nc(C)nc(N)n2)cn1` [Example 121, 5-(4-amino-6-methyl-1,3,5-triazin-2-yl)-N4-(6-methoxypyridin-3-yl)-N2,N2-dimethylpyrimidine-2,4-diamine], the Ki at PI3Kα stood at 45 nM. For the same molecule, the IC50 in assay [1] (setting [2]) came to 190 nM.

Consider `Cc1nc(N)nc(-c2cc(CN3CCOCC3)cnc2Nc2ccc3scnc3c2)n1` [Example 129, N-(3-(4-amino-6-methyl-1,3,5-triazin-2-yl)-5-(morpholinomethyl)pyridin-2-yl)benzo[d]thiazol-5-amine], for which the inhibitory constant (Ki) at PI3Kα turned out to be 100 nM. In addition, the IC50 in assay [1] (setting [2]) is 83 nM.

With `COc1ccc(Nc2ncc(C(O)c3cc(Br)ccc3S(=O)(=O)N(C)C)cc2-c2nc(C)nc(N)n2)cn1` (stereo not drawn) [Example 235, 2-((5-(4-Amino-6-Methyl-1,3,5-Triazin-2-yl)-6-(6-Methoxypyridin-3-Ylamino)Pyridin-3-yl)(Hydroxy)Methyl)-4-Bromo-N,N-Dimethylbenzenesulfonamide], the Ki on PI3Kα came out at 23 nM. Also, the IC50 in assay [1] (setting [2]) was over 10000 nM.

Consider `COc1ncc(Nc2ncc([C@@H](C)N3CCN(S(C)(=O)=O)CC3)cc2-c2nc(C)nc3[nH]cnc23)cc1F` [Example 297, (R)—N-(5-Fluoro-6-Methoxypyridin-3-yl)-3-(2-Methyl-9H-Purin-6-yl)-5-(1-(4-(Methylsulfonyl)Piperazin-1-yl)Ethyl)Pyridin-2-Amine], for which the Ki on PI3Kα stood at 1 nM. The IC50 in assay [1] (setting [2]) was found to be 9 nM.

As for `COc1ccc(Nc2ncc(C3(N4CCN(S(C)(=O)=O)CC4)CC3)cc2-c2nc(C)nc(N)n2)cn1` [Example 282, 4-(2-(6-Methoxypyridin-3-Ylamino)-5-(1-(4-(Methylsulfonyl)Piperazin-1-yl)Cyclopropyl)Pyridin-3-yl)-6-Methyl-1,3,5-Triazin-2-Amine], the Ki on PI3Kα came out at 7 nM. In assay [1] (setting [2]), the IC50 worked out at 26 nM.

With `COc1ncc(Nc2ncc(CN3CCN(C(=O)N(C)C(C)C)CC3)cc2-c2nc(C)nc(N)n2)cc1F` [Example 357, 4-((5-(4-Amino-6-Methyl-1,3,5-Triazin-2-yl)-6-(5-Fluoro-6-Methoxypyridin-3-Ylamino)Pyridin-3-yl)Methyl)-N-Isopropyl-N-Methylpiperazine-1-Carboxamide], the inhibition constant Ki on PI3Kα came out at 14 nM. Besides, the IC50 in assay [1] (setting [2]) was found to be 83 nM.

With `Cc1nc(N)nc(-c2cc([C@@H](C)N3CCN(S(C)(=O)=O)C[C@@H]3C)cnc2Nc2ccc3scnc3c2)n1` [Example 293, N-(3-(4-Amino-6-Methyl-1,3,5-Triazin-2-yl)-5-((R)-1-((S)-2-Methyl-4-(Methylsulfonyl)Piperazin-1-yl)Ethyl)Pyridin-2-yl)Benzo[D]Thiazol-5-Amine], the Ki at PI3Kα is 4 nM. In assay [1] (setting [2]), the IC50 turned out to be 24 nM.

For `CCS(=O)(=O)c1cnc(Nc2cnc(OC)c(F)c2)c(-c2nc(C)nc(N)n2)c1` [Example 303, 4-(5-(ethylsulfonyl)-2-(5-fluoro-6-methoxypyridin-3-ylamino)pyridin-3-yl)-6-methyl-1,3,5-triazin-2-amine], at PI3Kα, the Ki is 807 nM. Also, in assay [1] (setting [2]), the IC50 is over 10000 nM.

Turning to `Cc1nc(N)nc(-c2cccnc2Nc2ccc(Cl)nc2)n1` [Example 54, 4-(2-(6-Chloropyridin-3-Ylamino)Pyridin-3-yl)-6-Methyl-1,3,5-Triazin-2-Amine], the Ki on PI3Kα stood at 160 nM. Also, in assay [1] (setting [2]), the IC50 was 674 nM.

With `COc1ncc(Nc2ncc(C3(N)CC3)cc2-c2nc(C)nc(N)n2)cc1F` [Example 300, 4-(5-(1-Aminocyclopropyl)-2-(5-Fluoro-6-Methoxypyridin-3-Ylamino)Pyridin-3-yl)-6-Methyl-1,3,5-Triazin-2-Amine], at PI3Kα, the Ki amounted to 74 nM. Also, the IC50 in assay [1] (setting [2]) came to 17 nM.

Turning to `COC(=O)N1CCN(Cc2cnc(Nc3ccc(OC)nc3)c(-c3nc(C)nc4[nH]cnc34)c2)CC1` [Example 86, Methyl 4-((6-(6-Methoxypyridin-3-Ylamino)-5-(2-Methyl-9H-Purin-6-yl)Pyridin-3-yl)Methyl)Piperazine-1-Carboxylate], the Ki on PI3Kα turned out to be 18 nM. The IC50 in assay [1] (setting [2]) worked out at 63 nM.

For `COCCOc1cnc(Nc2cnc(OC)c(NS(C)(=O)=O)c2)c(-c2nc(C)nc(N)n2)c1` [Example 336, N-(5-(3-(4-Amino-6-Methyl-1,3,5-Triazin-2-yl)-5-(2-Methoxyethoxy)Pyridin-2-Ylamino)-2-Methoxypyridin-3-yl)Methanesulfonamide], the Ki on PI3Kα worked out at 55 nM. Besides, in assay [1] (setting [2]), the IC50 is 36 nM.

In the case of `COc1ccc(Nc2ncc(CN3CC(S(C)(=O)=O)C3)cc2-c2nc(C)nc(N)n2)cn1` [Example 223, 4-(2-(6-Methoxypyridin-3-Ylamino)-5-((3-(Methylsulfonyl)Azetidin-1-yl)Methyl)Pyridin-3-yl)-6-Methyl-1,3,5-Triazin-2-Amine], on PI3Kα, the Ki was found to be 6 nM. For the same molecule, in assay [1] (setting [2]), the IC50 is 28 nM.

As to `COc1ncc(Nc2ncc([C@@H](C)N3CCN(S(C)(=O)=O)C[C@@H]3C)cc2-c2nc(C)nc3[nH]cnc23)cc1F` [Example 295, N-(5-Fluoro-6-Methoxypyridin-3-yl)-5-((R)-1-((S)-2-Methyl-4-(Methylsulfonyl)Piperazin-1-yl)Ethyl)-3-(2-Methyl-9H-Purin-6-yl)Pyridin-2-Amine], the Ki on PI3Kα was found to be 3 nM. Further, in assay [1] (setting [2]), the IC50 stood at 6 nM.

For `COc1ncc(Nc2ncc([C@@H](C)N3CCOCC3)cc2-c2nc(C)nc(N)n2)cc1F` (single isomer, unassigned) [Example 291], the Ki at PI3Kα came to 37 nM. Also, the IC50 in assay [1] (setting [2]) was 7 nM.

Consider `COc1ncc(Nc2ncc(C=O)cc2-c2nc(C)nc(N)n2)cc1F` [Example 187, 5-(4-Amino-6-Methyl-1,3,5-Triazin-2-yl)-6-(5-Fluoro-6-Methoxypyridin-3-Ylamino)Nicotinaldehyde], for which the Ki at PI3Kα came out at 13 nM. Moreover, in assay [1] (setting [2]), the IC50 stood at 18 nM.

As for `Cc1nc(N)nc(-c2cc(CN3CCN(S(C)(=O)=O)CC3)cnc2Nc2ccc3scnc3c2)n1` [Example 240, N-(3-(4-Amino-6-Methyl-1,3,5-Triazin-2-yl)-5-((4-(Methylsulfonyl)Piperazin-1-yl)Methyl)Pyridin-2-yl)Benzo[D]Thiazol-5-Amine], the Ki on PI3Kα was 8 nM. The IC50 in assay [1] (setting [2]) turned out to be 43 nM.

As to `COCCOc1cnc(Nc2cnc(C)c(NS(C)(=O)=O)c2)c(-c2nc(C)nc(N)n2)c1` [Example 376, N-(5-(3-(4-Amino-6-Methyl-1,3,5-Triazin-2-yl)-5-(2-Methoxyethoxy)Pyridin-2-Ylamino)-2-Methylpyridin-3-yl)Methanesulfonamide], the Ki at PI3Kα is 71 nM. The IC50 in assay [1] (setting [2]) is 267 nM.

For the molecule `COc1ncc(Nc2ncc(C(OC(=O)c3cccc(Cl)c3)C(C)(C)O)cc2-c2nc(C)nc(N)n2)cc1F` (stereo not drawn) [Example 351, 1-(5-(4-Amino-6-Methyl-1,3,5-Triazin-2-yl)-6-(5-Fluoro-6-Methoxypyridin-3-Ylamino)Pyridin-3-yl)-2-Hydroxy-2-Methylpropyl 3-Chlorobenzoate], the Ki on PI3Kα is 9 nM. In addition, in assay [1] (setting [2]), the IC50 came out at 70 nM.

Take `COc1ccc(Nc2ncc(CNCc3ccccn3)cc2-c2nc(C)nc3[nH]cnc23)cn1` [Example 136, N-(6-methoxypyridin-3-yl)-3-(2-methyl-9H-purin-6-yl)-5-((pyridin-2-ylmethylamino)methyl)pyridin-2-amine]: on PI3Kα, the Ki turned out to be 54 nM. Further, the IC50 in assay [1] (setting [2]) was 124 nM.
